From patent EP0428268A2, “Pharmaceutical phenylpyridone derivatives” (SMITH KLINE & FRENCH LABORATORIES LIMITED, priority 1989, dated 1991)
Like-named read-outs stand apart in the source and are kept apart here.

Experiments:
[1] = tested on: spontaneous colonic activity; experiment: Inhibition of spontaneous colonic activity in vitro (isolated distal colon, organ bath); design: species or system guinea-pigs; conditions: concentration reducing spontaneous colonic activity by 50%, guinea-pig distal colon, Krebs solution at 37°C, read-out: IC₅₀
Source text: Male albino guinea-pigs (300 - 400g) were killed by a blow to the back of the head and exsanguinated. A 2cm long segment of the proximal part of the hypogastric loop of the distal colon was rapidly dissected out and placed in oxygenated (95% O₂, 5% CO₂) modified warm Krebs solution. The tissue was cleaned out with Krebs and the adjoining mesentery discarded. Cotton was then tied to each end and the colon was attached to a tissue holder in an organ bath containing modified oxygenated Krebs solution at 37°C. The other end of the tissue was tied to an isometric transducer and placed under 1g tension. Force developed by the muscle was detected by the transducer, and recorded on a multitrace pen recorder. Spontaneous colonic activity, as assessed by the contraction distance over a five minute period, was subjected to computer analysis.
The tissues were allowed to settle at a resting tension of 1g for 1 hour, during which time they were washed at 15 minute intervals. Three samples of pre-dose activity were taken and averaged. The tissues were then dosed and two samples of post-dose activity were taken. The lowest value was used to calculate the percentage relaxation, and log dose response curves were constructed. The tissues were washed 10 minutes after dosing and left for 15 minutes to settle prior to the next control period. […]

ovalbumen = experiment: Anti-allergic activity (ovalbumen challenge in sensitised animals, tracheal inflation pressure); assay type: in vivo, Duncan Hartley guinea-pigs; conditions: dose of 17 µmol/kg i.v.; ovalbumen challenge 30 minutes following drug administration
Description: Male Duncan Hartley guinea-pigs (250-300 g) were sensitised to ovalbumen by i.p. injection of 2 ml of 50mg.ml⁻¹ i.p. and 0.2 ml s.c. Three weeks later they were anaesthetised with 60mg.kg⁻¹ sodium pentabarbitone. The trachea was cannulated and the animal respired at a rate of 40 breaths per minute and at an initial tracheal inflation pressure of 16 mmHg. Tracheal inflation pressure was measured by a transducer connected to a side arm of the respiration circuit. The carotid artery was cannulated for the measurement of blood pressure and the signal was used to trigger an instantaneous rate meter. A jugular vein was cannulated for the administration of drug and allergen. After surgery the animals were allowed to stabilise and the drug was administered i.v. as a bolus. Following this, ovalbumen 1mg.kg⁻¹ was injected i.v. as the antigen challenge either 2, 15 or 30 minutes following drug treatment and the peak bronchoconstrictor response recorded. For the control group ovalbumen only was given. One ovalbumen challenge per guinea-pig was used and n = 6 for each time point. The percentage increase in tracheal inflation pressure was calculated.

CCCOc1cc(OC)ccc1-c1ccc(C(N)=O)c(=O)[nH]1 [Example 9(b), 1,2-Dihydro-6-(4-methoxy-2-propoxyphenyl)-2-oxo-3-pyridine carboxamide]
IC50 ([1]; Cavia porcellus): 3000 nM

CCCOc1ccc(C(N)=O)cc1-c1ccc(C(N)=O)c(=O)[nH]1 [Example 13, 3-(3-Carboxamido-1,2-dihydro-2-oxo-6-pyidinyl)-4-propoxybenzamide]
IC50 [1]: 1100 nM

CC(C)COc1ccc(F)cc1-c1ccc(C(N)=O)c(=O)[nH]1 [Example 25, 6-(5-Fluoro-2-(2-methylpropoxy)phenyl)-1,2-dihydro-2-oxo-pyridine-3-carboxamide]
inhibition of the control bronchoconstrictor response (ovalbumen): 40%
